The values that follow come from patent US6642256B2, “Piperidine derivatives as subtype selective N-Methyl-D-Aspartate antagonists” (Warner-Lambert Company LLC, priority 2000, dated 2003).

Data set [1] deals with T1, NR1A/NR2B NMDA receptor subtype (Rattus norvegicus, UniProt P35439+Q00960).
T1 construct: buffy coat membrane fraction was prepared from frozen adult rat forebrains; tissue Zivic-Miller Laboratories, Inc; host or cells: adult rat forebrain membranes
In words: [3H]Ifenprodil binding assay (IFPNR), rat forebrain membranes. The protocol: b. [^3H]Ifenprodil Binding Assay (IFPNR) Protocol:
Ifenprodil, [phenyl-^3H]-(specific activity, 66.2 Ci/mmol) was purchased from Dupont NEN Research Products (Boston, Mass.). Ifenprodil tartrate was purchased from Research Biochemicals International (Natick, Mass.). HEPES, glutamate and glycine were purchased from Sigma Chemical Co. (St. Louis, Mo.).
All buffers and reagents used in assay incubations or to dissolve drugs were prepared using water purified through a Milli-Q reverse osmosis system (Millipore Corp., Bedford, Mass.) and treated with UV emissions. Prior to use in the assays buffers were further filtered through a sterile Coming filtration unit (Coming Glass Works, Coming, N.Y.) containing a 0.2 micron filter. Buffer used to rinse the membranes on the assay filters was prepared with purified water, but was not refiltered and was stored no longer than 5 days. Stock solutions of the drugs (usually 10 mM) were dissolved in 20 mM HEPES-KOH buffer pH 7.4 (assay buffer) with the addition of 1 to 5 μL of glacial AcOH, if needed to keep them in solution. Eliprodil was used as the reference NMDA antagonist. A stock solution of eliprodil was prepared, and was buffered with the addition of 10% DMSO. All subsequent dilutions from the stock solution were made in buffer.
An extensively washed buffy coat membrane fraction was prepared from frozen adult rat forebrains (Zivic-Miller Laboratories, Inc., Zelienople, Pa.) as described by Coughenour L. L.; Cordon, J. J., J. Pharmacol. Exp. Ther., 1997;280:584-592, and stored at −80° C. On the day of the assay, pellets of the frozen membrane fractions were resuspended in 35 mL of assay buffer at pH 7.4 using a POLYTRON (Kinematica A. G. Company, Littau, Switzerland) mixer at setting 6. After incubation at 37° C. for 30 minutes in a shaking water bath, the homogenate was centrifuged 40,000×g for 10 minutes at 4° C. The pellets were resuspended in fresh buffer and centrifuged 3 more times before final suspension for use in the assay.
(iii) [^3H]Ifenprodil Binding protocol:
Triplicate incubations were carried out in a volume of 0.5 mL in 1.3 mL polypropylene tubes (Marsh Biomedical Products Inc, Rochester, N.Y.) for 2 hours at room temperature. Incubations contained invention compounds, membranes (100-200 μg protein) and 4 nM [^3H]-ifenprodil in 20 mM HEPES-KOH buffer, pH 7.4 (assay buffer). Assays were started by addition of the membranes. Bound radioligand was separated by filtration under reduced pressure using a TOMTEC Mach II, 96-well cell harvester (Tomtec Inc, Orange, Conn.). Filtration was through Whatman GF/B glass fiber filters (Whatman Ltd., Maidstone, England), which had been soaked for at least 15 minutes in 0.3% polyethylenimine and allowed to air dry. The filters were rinsed with 3 mL of ice cold assay buffer within 6 seconds. Air was allowed to pass through the filters for an additional 10 seconds to remove residual moisture. The filter mat was supported on a cold (−20° C.) TEFLON (E. I. Du Pont de Nemours and Company, Wilmington, Del.) coated support, and filters from individual wells were separated and placed in Mini Poly-Q vials (Becklman Instruments Inc, Fullerton, Calif.) and filled with 4 mL of scintillation cocktail (Beckman Ready Protein^+). Radioactivity retained on the filter was determined by liquid scintillation spectrophotometry. Nonspecific binding was defined as the binding in the presence of […] ifenprodil. Ninety percent of the total binding of ifenprodil was specific binding at the NR1A/NR2B NMDA receptor subtype active site (as opposed to binding at a remote site).
Binding curves were statistically analyzed for a best 1- or 2-site competition fit using GRAPHPAD PRISM software (GraphPad Software Inc, San Diego, Calif.), a computer program used to analyze and graph scientific data. The normalized data was fitted by nonweighted nonlinear regression to either [formula]
Control data was entered as 100%, and no parameters were constrained. […]

The mark [2] stands for this setting: Table 5, 4 nM [3H]-ifenprodil, read-out: IFPNR IC50.
[3] abbreviates: Table 3, 4 nM [3H]-ifenprodil, read-out: IFPNR IC50.
[4] abbreviates: Table 2, 4 nM [3H]-ifenprodil, read-out: IFPNR IC50 μm.
The mark [5] stands for this setting: Table 4, 4 nM [3H]-ifenprodil, read-out: IFPNR IC50.

pIC50: −log10 of the molar value. Counter-ions that a name gives are not always drawn. Like-named read-outs stand apart in the source and are kept apart here.

T1 sequence (Q00960 27-1482, other chains not shown): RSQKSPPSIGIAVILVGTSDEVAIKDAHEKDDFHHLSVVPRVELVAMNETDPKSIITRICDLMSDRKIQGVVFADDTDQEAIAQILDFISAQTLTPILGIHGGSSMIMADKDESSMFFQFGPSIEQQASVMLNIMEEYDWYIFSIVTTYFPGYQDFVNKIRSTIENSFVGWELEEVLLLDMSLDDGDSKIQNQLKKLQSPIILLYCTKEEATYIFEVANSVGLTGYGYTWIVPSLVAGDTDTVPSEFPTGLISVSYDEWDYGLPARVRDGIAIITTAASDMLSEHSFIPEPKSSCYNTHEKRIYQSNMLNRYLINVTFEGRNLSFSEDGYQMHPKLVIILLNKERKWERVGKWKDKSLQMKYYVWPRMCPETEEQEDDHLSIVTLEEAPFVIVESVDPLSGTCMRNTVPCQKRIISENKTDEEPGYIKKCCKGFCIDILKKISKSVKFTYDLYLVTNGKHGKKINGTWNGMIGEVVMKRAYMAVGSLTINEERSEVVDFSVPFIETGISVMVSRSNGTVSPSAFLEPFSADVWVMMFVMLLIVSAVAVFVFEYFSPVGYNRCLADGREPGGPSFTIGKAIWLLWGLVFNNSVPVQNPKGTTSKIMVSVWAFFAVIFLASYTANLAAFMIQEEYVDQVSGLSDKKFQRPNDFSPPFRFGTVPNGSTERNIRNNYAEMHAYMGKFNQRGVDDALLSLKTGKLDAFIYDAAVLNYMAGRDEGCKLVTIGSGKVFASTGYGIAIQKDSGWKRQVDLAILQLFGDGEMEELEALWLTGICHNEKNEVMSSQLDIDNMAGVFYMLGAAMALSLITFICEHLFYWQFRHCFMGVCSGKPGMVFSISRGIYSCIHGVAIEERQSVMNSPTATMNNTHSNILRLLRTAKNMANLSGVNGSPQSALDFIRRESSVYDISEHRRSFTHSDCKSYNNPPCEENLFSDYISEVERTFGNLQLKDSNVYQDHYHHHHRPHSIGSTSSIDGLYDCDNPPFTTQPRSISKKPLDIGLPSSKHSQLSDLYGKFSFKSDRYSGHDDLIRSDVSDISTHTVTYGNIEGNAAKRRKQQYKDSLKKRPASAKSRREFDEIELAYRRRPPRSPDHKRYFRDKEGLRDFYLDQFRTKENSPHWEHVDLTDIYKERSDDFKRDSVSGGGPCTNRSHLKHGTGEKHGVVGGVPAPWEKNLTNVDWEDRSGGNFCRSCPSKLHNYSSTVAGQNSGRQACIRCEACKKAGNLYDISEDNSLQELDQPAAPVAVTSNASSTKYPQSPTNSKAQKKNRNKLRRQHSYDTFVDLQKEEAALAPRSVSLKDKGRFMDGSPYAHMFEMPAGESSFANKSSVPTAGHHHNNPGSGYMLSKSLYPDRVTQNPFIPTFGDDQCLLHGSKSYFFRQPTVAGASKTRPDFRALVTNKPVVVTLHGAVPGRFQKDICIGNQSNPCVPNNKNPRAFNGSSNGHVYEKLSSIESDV

The molecule `O=c1[nH]c2ccc(C3=NOC(CN4CCC(Cc5ccc(F)cc5)CC4)C3)cc2s1` (stereo not shown) (as salt: HCl) [Example 16] yielded a melting point of 271 to 276 °C.

With `O=c1[nH]c2ccc(C3=NOC(CN4CCC(O)(Cc5ccccc5)CC4)C3)cc2o1` (stereo not shown) (as salt: HCl) [Example 17, 6-[5-(4-Benzyl-4-hydroxypiperidin-1-ylmethyl)-4,5-dihydroisoxazol-3-yl]-3H-benzoxazol-2-one], the melting point lay within 166 to 170 °C.

Molecule `O=c1[nH]c2ccc(C3=NOC(CCN4CCC(Cc5ccc(F)cc5)CC4)C3)cc2o1` (stereo not shown) (as salt: HCl) [Example 19, 6-(5-{2-[4-(4-Fluorobenzyl)piperidin-1-yl]ethyl}-4,5-dihydroisoxazol-3-yl)-3H-benzoxazol-2-one] yielded a melting point of 254 to 258 °C.

Consider `O=c1[nH]c2ccc(C3=NOC(CN4CCC(O)(Cc5ccc(F)cc5)CC4)C3)cc2o1` (stereo not shown) (as salt: HCl) [Example 20, 6-{5-[4-(4-Fluorobenzyl)-4-hydroxypiperidin-1-ylmethyl]-4,5-dihydroisoxazol-3-yl}-3H-benzoxazol-2-one], for which the melting point was in the range of 195 to 204 °C.

Consider `O=c1[nH]c2ccc(C3=NOC(CN4CCC([S+]([O-])c5ccc(F)cc5)CC4)C3)cc2o1` (stereo not shown) (as salt: HCl) [Example 29, 6-{5-[4-(4-Fluorobenzenesulfinyl)piperidin-1-ylmethyl]-4,5-dihydroisoxazol-3-yl}-3H-benzoxazol-2-one], for which the melting point was 170 to 178 °C.

Regarding `O=c1[nH]c2ccc(C3=NOC(CN4CCC(C(O)c5ccc(F)cc5)CC4)C3)cc2o1` (stereo not shown) (as salt: HCl) [Example 31, 6-(5-{4-[(4-Fluorophenyl)hydroxymethyl]piperidin-1-ylmethyl}-4,5-dihydroisoxazol-3-yl)-3H-benzoxazol-2-one], the melting point was in the range of 186 to 191 °C.

Molecule `COC(=O)C1(CN2CCC(Cc3ccc(F)cc3)CC2)CC(c2ccc3[nH]c(=O)oc3c2)=NO1` (stereo not shown) (as salt: salt) [Example 23, 5-[4-(4-Fluorobenzyl)piperidin-1-ylmethyl]-3-(2-oxo-2,3-dihydrobenzoxazol-6-yl)-4,5-dihydroisoxazole-5-carboxylic acid methyl ester] came in with a melting point of 146 to 155 °C.

Regarding `O=c1[nH]c2ccc(C3=NOC(CN4CCC(Cc5ccc(F)cc5)CC4)C3)cc2o1` (racemic) [Example 3, 6-{5-[4-(4-Fluorobenzyl)piperidin-1-ylmethyl]-4,5-dihydroisoxazol-3-yl}-3H-benzoxazol-2-one hydrochloride], the IC50 in data set [1] (Table 1, 4 nM [3H]-ifenprodil, read-out: IFPNR (IC50 μM)) amounted to 0.03 µM.

`O=c1[nH]c2ccc(C3=NOC(CN4CC[C@@H](Cc5ccc(F)cc5)[C@@H](O)C4)C3)cc2o1` (stereo in doubt) (as salt: HCl) [Example 26, 6-{5-[4-(4-Fluorobenzyl)-3-hydroxypiperidin-1-ylmethyl]-4,5-dihydroisoxazol-3-yl}-3H-benzoxazol-2-one] gave a melting point of 224 to 233 °C.

`O=c1[nH]c2ccc(C3=NOC(CN4CC[C@@H](Cc5ccc(F)cc5)[C@@H](O)C4)C3)cc2o1` (stereo in doubt) [Example 26, 6-{5-[4-(4-Fluorobenzyl)-3-hydroxypiperidin-1-ylmethyl]-4,5-dihydroisoxazol-3-yl}-3H-benzoxazol-2-one]: the pIC50 in data set [1] (setting [2]) was 7.64.

As to `Cc1noc(CN2CCC(Cc3ccccc3)CC2)c1-c1ccc2[nH]c(=O)oc2c1` [Example 2, 6-[5-(4-Benzylpiperidin-1-ylmethyl)-3-methylisoxazol-4-yl]-3H-benzoxazol-2-one], the pIC50 in data set [1] (setting [3]) was below 6.00.

With `O=c1[nH]c2ccc(-c3cnc(CN4CCC(Cc5ccc(F)cc5)CC4)s3)cc2o1` [Example 6, 6-{2-[4-(4-Fluorobenzyl)piperidin-1-ylmethyl]thiazol-5-yl}-3H-benzoxazol-2-one], the negative logarithm of the IC50 (pIC50) in data set [1] (setting [4]) is 6.27.

As for `O=c1[nH]c2ccc(-c3cnc(CN4CCC(Cc5ccc(F)cc5)CC4)s3)cc2s1` [Example 7, 6-{2-[4-(4-Fluorobenzyl)piperidin-1-ylmethyl]thiazol-5-yl}-3H-benzothiazol-2-one], the pIC50 in data set [1] (setting [4]) was 6.35.

Regarding `S=c1[nH]c2ccc(-c3cnc(CN4CCC(Cc5ccccc5)CC4)s3)cc2[nH]1` [Example 8, 5-[2-(4-Benzylpiperidin-1-ylmethyl)thiazol-5-yl]-1,3-dihydrobenzimidazole-2-thione], the pIC50 in data set [1] (setting [4]) was 7.18.

For `O=c1[nH]c2ccc(-c3cnc(CN4CCC(Cc5ccc(F)cc5)CC4)o3)cc2s1` [Example 9, 6-{2-[4-(4-Fluorobenzyl)piperidin-1-ylmethyl]oxazol-5-yl}-3H-benzothiazol-2-one], the pIC50 in data set [1] (setting [4]) is below 6.00.

For `O=c1[nH]c2ccc(-c3cnc(CN4CCC(Cc5ccccc5)CC4)o3)cc2o1` [Example 10, 6-[2-(4-Benzylpiperidin-1-ylmethyl)oxazol-5-yl]-3H-benzoxazol-2-one], the pIC50 in data set [1] (setting [4]) is below 6.00.

As for `O=C1Cc2cc(-c3cnc(CN4CCC(Cc5ccccc5)CC4)o3)ccc2N1` [Example 11, 5-[2-(4-Benzylpiperidin-1-ylmethyl)oxazol-5-yl]-1,3-dihydroindol-2-one], in data set [1] (setting [4]), the negative logarithm of the IC50 (pIC50) is below 6.00.

Consider `O=c1[nH]c2ccc(C3=NCC(CN4CCC(Cc5ccc(F)cc5)CC4)S3)cc2o1` (stereo not shown) [Example 12, 6-{5-[4-(4-Fluorobenzyl)piperidin-1-ylmethyl]-4,5-dihydrothiazol-2-yl}-3H-benzoxazol-2-one], for which the pIC50 in data set [1] (setting [4]) is 6.40.

On to `O=c1[nH]c2ccc(C3=NCC(CN4CCC(Cc5ccccc5)CC4)S3)cc2o1` (stereo not shown) [Example 13, 6-[5-(4-Benzylpiperidin-1-ylmethyl)-4,5-dihydrothiazol-2-yl]-3H-benzoxazol-2-one], for which the pIC50 in data set [1] (setting [4]) is 7.00.

As for `O=c1[nH]c2ccc(C3=NOC(CN4CCC(Cc5ccc(F)cc5)CC4)C3)cc2s1` (stereo not shown) [Example 16], in data set [1] (setting [2]), the pIC50 is 8.70.

`O=c1[nH]c2ccc(C3=NOC(CN4CCC(O)(Cc5ccccc5)CC4)C3)cc2o1` (stereo not shown) [Example 17, 6-[5-(4-Benzyl-4-hydroxypiperidin-1-ylmethyl)-4,5-dihydroisoxazol-3-yl]-3H-benzoxazol-2-one]: the pIC50 in data set [1] (setting [3]) is 8.22.

As to `O=c1[nH]c2ccc(C3=NOC(CCN4CCC(Cc5ccc(F)cc5)CC4)C3)cc2o1` (stereo not shown) [Example 19, 6-(5-{2-[4-(4-Fluorobenzyl)piperidin-1-yl]ethyl}-4,5-dihydroisoxazol-3-yl)-3H-benzoxazol-2-one], the pIC50 in data set [1] (setting [3]) is 6.40.

With `O=c1[nH]c2ccc(C3=NOC(CN4CCC(O)(Cc5ccc(F)cc5)CC4)C3)cc2o1` (stereo not shown) [Example 20, 6-{5-[4-(4-Fluorobenzyl)-4-hydroxypiperidin-1-ylmethyl]-4,5-dihydroisoxazol-3-yl}-3H-benzoxazol-2-one], the negative logarithm of the IC50 (pIC50) in data set [1] (setting [3]) is 8.10.

On to `O=c1[nH]c2ccc(C3=NOC(CN4CCC([S+]([O-])c5ccc(F)cc5)CC4)C3)cc2o1` (stereo not shown) [Example 29, 6-{5-[4-(4-Fluorobenzenesulfinyl)piperidin-1-ylmethyl]-4,5-dihydroisoxazol-3-yl}-3H-benzoxazol-2-one], for which, in data set [1] (setting [5]), the negative logarithm of the IC50 (pIC50) was 6.22.

Regarding `O=c1[nH]c2ccc(C3=NOC(CN4CCC(C(O)c5ccc(F)cc5)CC4)C3)cc2o1` (stereo not shown) [Example 31, 6-(5-{4-[(4-Fluorophenyl)hydroxymethyl]piperidin-1-ylmethyl}-4,5-dihydroisoxazol-3-yl)-3H-benzoxazol-2-one], in data set [1] (setting [5]), the pIC50 is below 6.00.
